Measurements published in patent US20020111274A1, “1-alkyl-3-[1-(substituted phenyl) benzotriazol-6-yl] uracils” (BASF Aktiengesellschaft, priority 2000, published 2002).

Key:
ABUTH Velvetleaf [1] = assay: Postemergence herbicidal evaluation, ABUTH; assay type: in vivo, Abutilon theophrasti, Medic.; parameters: scale not given here; conditions: postemergence spray, rated about two-three weeks after treatment
Method in brief: (§1)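 Two-week-old seedlings sprayed postemergence with compound in 80/20 acetone/water plus 1.0% methylated seed oil, at about 0.006–0.400 kg/ha, through a nozzle at 40 psi. Plants kept under greenhouse conditions and visually rated about two–three weeks after treatment; ratings from repeat tests averaged.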

AMBEL Ragweed, Common [2] = assay: Postemergence herbicidal evaluation, AMBEL; assay type: in vivo, Ambrosia artemisifolia, L.; parameters: scale not given here; conditions: postemergence spray, rated about two-three weeks after treatment
Method in brief: as §1

CASOB Sicklepod [3] = assay: Postemergence herbicidal evaluation, CASOB; assay type: in vivo, Cassia obtusifolia, L.; parameters: scale not given here; conditions: postemergence spray, rated about two-three weeks after treatment
Method in brief: as §1

[4] = test system: CHEAL Lambsquarters, Common; assay: Postemergence herbicidal evaluation, CHEAL; assay type: in vivo, Chenopodium album, L.; parameters: scale not given here; conditions: postemergence spray, rated about two-three weeks after treatment
Method in brief: as §1

ECHOG Barnyardgrass [5] = assay: Postemergence herbicidal evaluation, ECHOG; assay type: in vivo, Echinochloa crus-galli, (L.) Beau; parameters: scale not given here; conditions: postemergence spray, rated about two-three weeks after treatment
Method in brief: as §1

GALAP Galium [6] = assay: Postemergence herbicidal evaluation, GALAP; assay type: in vivo, Galium aparine; parameters: scale not given here; conditions: postemergence spray, rated about two-three weeks after treatment
Method in brief: as §1

[7] = test system: IPOHE Morningglory, Ivyleaf; assay: Postemergence herbicidal evaluation, IPOHE; assay type: in vivo, Ipomoea hederacea, (L.) Jacq.; parameters: scale not given here; conditions: postemergence spray, rated about two-three weeks after treatment
Method in brief: as §1

SETVI Foxtail, Green [8] = assay: Postemergence herbicidal evaluation, SETVI; assay type: in vivo, Setaria viridis, (L.) Beau; parameters: scale not given here; conditions: postemergence spray, rated about two-three weeks after treatment
Method in brief: as §1

GLXMAW Soybean, Williams [9] = assay: Postemergence herbicidal evaluation, GLXMAW; assay type: in vivo, Glycine max, (L.) Merr. cv Williams; parameters: scale not given here; conditions: postemergence spray, rated about two-three weeks after treatment
Method in brief: as §1

[10] = test system: TRZAWR Wheat, Winter, cv Riband; assay: Postemergence herbicidal evaluation, TRZAWR; assay type: in vivo, Triticum aestivum; parameters: scale not given here; conditions: postemergence spray, rated about two-three weeks after treatment
Method in brief: as §1

ORYSAT Rice, Tebonnet [11] = assay: Postemergence herbicidal evaluation, ORYSAT; assay type: in vivo, Oryza sativa, (L.); parameters: scale not given here; conditions: postemergence spray, rated about two-three weeks after treatment
Method in brief: as §1

ZEAMX Corn, Field [12] = assay: Postemergence herbicidal evaluation, ZEAMX; assay type: in vivo, Zea mays, L. (Sammel-Bezeichnung); parameters: scale not given here; conditions: postemergence spray, rated about two-three weeks after treatment
Method in brief: as §1

ABUTH Velvetleaf [13] = assay: Preemergence herbicidal evaluation, ABUTH; assay type: in vivo, Abutilon theophrasti, Medic.; parameters: scale not given here; conditions: preemergence
Method in brief: (§2)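 First, seed is blended with potting soil and sown over roughly an inch of soil per cup. Next, the surface is sprayed with an aqueous acetone solution delivering about 0.013–0.800 kg/ha. Finally, cups are grown in the greenhouse and rated after 4–5 weeks.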

AMBEL Ragweed, Common [14] = assay: Preemergence herbicidal evaluation, AMBEL; assay type: in vivo, Ambrosia artemisifolia, L.; parameters: scale not given here; conditions: preemergence
Method in brief: as §2

CASOB Sicklepod [15] = assay: Preemergence herbicidal evaluation, CASOB; assay type: in vivo, Cassia obtusifolia, L.; parameters: scale not given here; conditions: preemergence
Method in brief: as §2

[16] = test system: CHEAL Lambsquarters, Common; assay: Preemergence herbicidal evaluation, CHEAL; assay type: in vivo, Chenopodium album, L.; parameters: scale not given here; conditions: preemergence
Method in brief: as §2

ECHOG Barnyardgrass [17] = assay: Preemergence herbicidal evaluation, ECHOG; assay type: in vivo, Echinochloa crus-galli, (L.) Beau; parameters: scale not given here; conditions: preemergence
Method in brief: as §2

GALAP Galium [18] = assay: Preemergence herbicidal evaluation, GALAP; assay type: in vivo, Galium aparine; parameters: scale not given here; conditions: preemergence
Method in brief: as §2

[19] = test system: IPOHE Morningglory, Ivyleaf; assay: Preemergence herbicidal evaluation, IPOHE; assay type: in vivo, Ipomoea hederacea, (L.) Jacq.; parameters: scale not given here; conditions: preemergence
Method in brief: as §2

SETVI Foxtail, Green [20] = assay: Preemergence herbicidal evaluation, SETVI; assay type: in vivo, Setaria viridis, (L.) Beau; parameters: scale not given here; conditions: preemergence
Method in brief: as §2

GLXMAW Soybean, Williams [21] = assay: Preemergence herbicidal evaluation, GLXMAW; assay type: in vivo, Glycine max, (L.) Merr. cv Williams; parameters: scale not given here; conditions: preemergence
Method in brief: as §2

[22] = test system: TRZAWR Wheat, Winter, cv Riband; assay: Preemergence herbicidal evaluation, TRZAWR; assay type: in vivo, Triticum aestivum; parameters: scale not given here; conditions: preemergence, rate 0.062 kg/ha
Method in brief: as §2

ORYSAT Rice, Tebonnet [23] = assay: Preemergence herbicidal evaluation, ORYSAT; assay type: in vivo, Oryza sativa, (L.); parameters: scale not given here; conditions: preemergence
Method in brief: as §2

ZEAMX Corn, Field [24] = assay: Preemergence herbicidal evaluation, ZEAMX; assay type: in vivo, Zea mays, L. (Sammel-Bezeichnung); parameters: scale not given here; conditions: preemergence
Method in brief: as §2

## CCc1ccc(-n2nnc3cc(F)c(-n4c(=O)cc(C(F)(F)F)n(C)c4=O)cc32)cc1 [Example 17, 3-[1-(4-ethylphenyl)-5-fluoro-1H-1,2,3-benzotriazol-6-yl]-1-methyl-6-(trifluoromethyl)-2,4(1H,3H)-pyrimidinedione]
ABUTH Velvetleaf [1]; 0.008 kg/ha
  Postemergence herbicidal rating ABUTH: 9.0
ABUTH Velvetleaf [1]; 0.016 kg/ha
  Postemergence herbicidal rating ABUTH: 9.0
ABUTH Velvetleaf [1]; 0.032 kg/ha
  Postemergence herbicidal rating ABUTH: 9.0
ABUTH Velvetleaf [1]; 0.062 kg/ha
  Postemergence herbicidal rating ABUTH: 9.0
AMBEL Ragweed, Common [2]; 0.008 kg/ha
  Postemergence herbicidal rating AMBEL: 5.0
AMBEL Ragweed, Common [2]; 0.016 kg/ha
  Postemergence herbicidal rating AMBEL: 6.0
AMBEL Ragweed, Common [2]; 0.032 kg/ha
  Postemergence herbicidal rating AMBEL: 8.0
AMBEL Ragweed, Common [2]; 0.062 kg/ha
  Postemergence herbicidal rating AMBEL: 9.0
CASOB Sicklepod [3]; 0.008 kg/ha
  Postemergence herbicidal rating CASOB: 1.0
CASOB Sicklepod [3]; 0.016 kg/ha
  Postemergence herbicidal rating CASOB: 3.0
CASOB Sicklepod [3]; 0.032 kg/ha
  Postemergence herbicidal rating CASOB: 5.0
CASOB Sicklepod [3]; 0.062 kg/ha
  Postemergence herbicidal rating CASOB: 6.0
[4]; 0.008 kg/ha
  Postemergence herbicidal rating CHEAL: 9.0
[4]; 0.016 kg/ha
  Postemergence herbicidal rating CHEAL: 6.0
[4]; 0.032 kg/ha
  Postemergence herbicidal rating CHEAL: 7.0
[4]; 0.062 kg/ha
  Postemergence herbicidal rating CHEAL: 9.0
ECHOG Barnyardgrass [5]; 0.008 kg/ha
  Postemergence herbicidal rating ECHCG: 0.0
ECHOG Barnyardgrass [5]; 0.016 kg/ha
  Postemergence herbicidal rating ECHCG: 0.0
ECHOG Barnyardgrass [5]; 0.032 kg/ha
  Postemergence herbicidal rating ECHCG: 1.0
ECHOG Barnyardgrass [5]; 0.062 kg/ha
  Postemergence herbicidal rating ECHCG: 5.0
GALAP Galium [6]; 0.008 kg/ha
  Postemergence herbicidal rating GALAP: 2.0
GALAP Galium [6]; 0.016 kg/ha
  Postemergence herbicidal rating GALAP: 4.0
GALAP Galium [6]; 0.032 kg/ha
  Postemergence herbicidal rating GALAP: 4.0
GALAP Galium [6]; 0.062 kg/ha
  Postemergence herbicidal rating GALAP: 7.0
[7]; 0.008 kg/ha
  Postemergence herbicidal rating IPOHE: 9.0
[7]; 0.016 kg/ha
  Postemergence herbicidal rating IPOHE: 9.0
[7]; 0.032 kg/ha
  Postemergence herbicidal rating IPOHE: 9.0
[7]; 0.062 kg/ha
  Postemergence herbicidal rating IPOHE: 9.0
SETVI Foxtail, Green [8]; 0.008 kg/ha
  Postemergence herbicidal rating SETVI: 1.0
SETVI Foxtail, Green [8]; 0.016 kg/ha
  Postemergence herbicidal rating SETVI: 1.0
SETVI Foxtail, Green [8]; 0.032 kg/ha
  Postemergence herbicidal rating SETVI: 3.0
SETVI Foxtail, Green [8]; 0.062 kg/ha
  Postemergence herbicidal rating SETVI: 8.0
GLXMAW Soybean, Williams [9]; 0.008 kg/ha
  Postemergence herbicidal rating GLXMAW: 5.5
GLXMAW Soybean, Williams [9]; 0.016 kg/ha
  Postemergence herbicidal rating GLXMAW: 5.5
GLXMAW Soybean, Williams [9]; 0.032 kg/ha
  Postemergence herbicidal rating GLXMAW: 5.5
GLXMAW Soybean, Williams [9]; 0.062 kg/ha
  Postemergence herbicidal rating GLXMAW: 7.0
[10]; 0.008 kg/ha
  Postemergence herbicidal rating TRZAWR: 3.5
[10]; 0.016 kg/ha
  Postemergence herbicidal rating TRZAWR: 3.5
[10]; 0.032 kg/ha
  Postemergence herbicidal rating TRZAWR: 4.0
[10]; 0.062 kg/ha
  Postemergence herbicidal rating TRZAWR: 5.0
ORYSAT Rice, Tebonnet [11]; 0.008 kg/ha
  Postemergence herbicidal rating ORYSAT: 3.0
ORYSAT Rice, Tebonnet [11]; 0.016 kg/ha
  Postemergence herbicidal rating ORYSAT: 3.0
ORYSAT Rice, Tebonnet [11]; 0.032 kg/ha
  Postemergence herbicidal rating ORYSAT: 3.5
ORYSAT Rice, Tebonnet [11]; 0.062 kg/ha
  Postemergence herbicidal rating ORYSAT: 4.0
ZEAMX Corn, Field [12]; 0.008 kg/ha
  Postemergence herbicidal rating ZEAMX: 5.0
ZEAMX Corn, Field [12]; 0.016 kg/ha
  Postemergence herbicidal rating ZEAMX: 5.5
ZEAMX Corn, Field [12]; 0.032 kg/ha
  Postemergence herbicidal rating ZEAMX: 5.5
ZEAMX Corn, Field [12]; 0.062 kg/ha
  Postemergence herbicidal rating ZEAMX: 5.5
ABUTH Velvetleaf [13]; rate 0.016 kg/ha
  ABUTH herbicidal rating: 9.0
ABUTH Velvetleaf [13]; rate 0.032 kg/ha
  ABUTH herbicidal rating: 7.0
ABUTH Velvetleaf [13]; rate 0.062 kg/ha
  ABUTH herbicidal rating: 9.0
ABUTH Velvetleaf [13]; rate 0.125 kg/ha
  ABUTH herbicidal rating: 9.0
AMBEL Ragweed, Common [14]; rate 0.016 kg/ha
  AMBEL herbicidal rating: 0.0
AMBEL Ragweed, Common [14]; rate 0.032 kg/ha
  AMBEL herbicidal rating: 3.3
AMBEL Ragweed, Common [14]; rate 0.062 kg/ha
  AMBEL herbicidal rating: 6.7
AMBEL Ragweed, Common [14]; rate 0.125 kg/ha
  AMBEL herbicidal rating: 8.3
CASOB Sicklepod [15]; rate 0.016 kg/ha
  CASOB herbicidal rating: 0.0
CASOB Sicklepod [15]; rate 0.032 kg/ha
  CASOB herbicidal rating: 1.3
CASOB Sicklepod [15]; rate 0.062 kg/ha
  CASOB herbicidal rating: 3.3
CASOB Sicklepod [15]; rate 0.125 kg/ha
  CASOB herbicidal rating: 2.3
[16]; rate 0.016 kg/ha
  CHEAL herbicidal rating: 9.0
[16]; rate 0.032 kg/ha
  CHEAL herbicidal rating: 9.0
[16]; rate 0.062 kg/ha
  CHEAL herbicidal rating: 9.0
[16]; rate 0.125 kg/ha
  CHEAL herbicidal rating: 9.0
ECHOG Barnyardgrass [17]; rate 0.016 kg/ha
  ECHCG herbicidal rating: 0.0
ECHOG Barnyardgrass [17]; rate 0.032 kg/ha
  ECHCG herbicidal rating: 1.7
ECHOG Barnyardgrass [17]; rate 0.062 kg/ha
  ECHCG herbicidal rating: 6.3
ECHOG Barnyardgrass [17]; rate 0.125 kg/ha
  ECHCG herbicidal rating: 8.3
GALAP Galium [18]; rate 0.016 kg/ha
  GALAP herbicidal rating: 0.0
GALAP Galium [18]; rate 0.032 kg/ha
  GALAP herbicidal rating: 0.0
GALAP Galium [18]; rate 0.062 kg/ha
  GALAP herbicidal rating: 1.0
GALAP Galium [18]; rate 0.125 kg/ha
  GALAP herbicidal rating: 1.0
[19]; rate 0.016 kg/ha
  IPOHE herbicidal rating: 0.0
[19]; rate 0.032 kg/ha
  IPOHE herbicidal rating: 3.3
[19]; rate 0.062 kg/ha
  IPOHE herbicidal rating: 6.0
[19]; rate 0.125 kg/ha
  IPOHE herbicidal rating: 9.0
SETVI Foxtail, Green [20]; rate 0.016 kg/ha
  SETVI herbicidal rating: 6.5
SETVI Foxtail, Green [20]; rate 0.032 kg/ha
  SETVI herbicidal rating: 7.3
SETVI Foxtail, Green [20]; rate 0.062 kg/ha
  SETVI herbicidal rating: 9.0
SETVI Foxtail, Green [20]; rate 0.125 kg/ha
  SETVI herbicidal rating: 9.0
GLXMAW Soybean, Williams [21]; rate 0.016 kg/ha
  GLXMAW herbicidal rating: 1.5
GLXMAW Soybean, Williams [21]; rate 0.032 kg/ha
  GLXMAW herbicidal rating: 1.7
GLXMAW Soybean, Williams [21]; rate 0.062 kg/ha
  GLXMAW herbicidal rating: 3.0
GLXMAW Soybean, Williams [21]; rate 0.125 kg/ha
  GLXMAW herbicidal rating: 3.0
[22]
  TRZAWR herbicidal rating: 3.0
ORYSAT Rice, Tebonnet [23]; rate 0.016 kg/ha
  ORYSAT herbicidal rating: 1.0
ORYSAT Rice, Tebonnet [23]; rate 0.032 kg/ha
  ORYSAT herbicidal rating: 0.5
ORYSAT Rice, Tebonnet [23]; rate 0.062 kg/ha
  ORYSAT herbicidal rating: 4.0
ORYSAT Rice, Tebonnet [23]; rate 0.125 kg/ha
  ORYSAT herbicidal rating: 4.7
ZEAMX Corn, Field [24]; rate 0.016 kg/ha
  ZEAMX herbicidal rating: 1.0
ZEAMX Corn, Field [24]; rate 0.032 kg/ha
  ZEAMX herbicidal rating: 3.7
ZEAMX Corn, Field [24]; rate 0.062 kg/ha
  ZEAMX herbicidal rating: 4.0
ZEAMX Corn, Field [24]; rate 0.125 kg/ha
  ZEAMX herbicidal rating: 6.7
other
  melting point: 189 to 192 °C
